Here are results for one compound from paper PMC4381587, “A novel PI3K inhibitor PIK-C98 displays potent preclinical activity against multiple myeloma” (Oncotarget, 2014).

The term IC50 denotes the concentration that gives 50% inhibition.

One test deals with ERK. The experiment in a line: Immunoblotting of ERK phosphorylation in OPM2 and JJN3 cells. It is filed as cell-based, human. Particulars: OPM2 and JJN3, 24 hr. How it is done: (§1) (B) LP1 and JJN3 cells were starved overnight, then treated with C98 or S14161 for 2 hr, followed by IGF-1 (100 ng/mL) for 15 min. Cells were then prepared for the analysis of the expression of p-AKT, t-AKT, p-IGF-1R, and IGF-1R by immunoblotting. (C) OPM2 and JJN3 cells were treated with increasing concentrations of C98 for 24 hr before being applied to immunoblotting against p-ERK, t-ERK, p-P38, t-P38, p-Src, t-Src, p-STAT3, or t-STAT3. GAPDH and β-actin were used as loading controls.
(§2) To further clarify the effects of C98 on other signaling pathways associated with PI3K signaling, we evaluated ERK and p38, both of which mediate extracellular signaling similar to PI3K. […] We also checked the phosphorylation status of STAT3, a signal transducer and activator of transcription. […] Therefore, C98 had no effects on these kinases/proteins associated with PI3K signaling.
(§3) The immunoblotting assays were performed as described previously. IRDye 680 goat anti-mouse and IRDye 800CW goat anti-rabbit antibodies were from Odyssey (San Ramon, CA, USA).
(In general: A western blot detects proteins with antibodies after separation by electrophoresis.)

Test [1] concerns PI3K/AKT/mTOR pathway in OPM2 and JJN3 cells. The experiment in a line: Immunoblotting of PI3K/AKT/mTOR pathway in OPM2 and JJN3 cells. It is filed as cell-based, human. The note with it: OPM2 and JJN3, increasing concentration, 24 hr. On the procedure:
Subsequently, the inhibition of C98 on the PI3K signaling pathway was evaluated in MM cell lines OPM2 and JJN3. […] Because all these kinases are downstream signaling proteins in the PI3K pathway while C98 had no effects on AKT and mTOR in the cell free assay, the inhibition of C98 on these kinases was probably due to its suppression on PI3K.
as §1, §3

The next test relates to PTEN. The experiment in a line: Immunoblotting of PTEN protein level in MM cells. It is filed as cell-based. The note with it: MM cells after C98 treatment. How it is done: To find out whether C98 also interfered with other signaling pathways, we first checked the receptor tyrosine kinase IGF-1R, which mediates PI3K activation in MM cells in the presence of IGF-1. Starved MM cells LP1 and JJN3 were incubated with C98 followed by IGF-1 stimulation. […] Moreover, we also measured the expression of PTEN, a negative regulator of PI3K signaling, in MM cells after C98 treatment.
as §3

In test [2] the target is recombinant human PI3K isoform δ (Homo sapiens, UniProt O00329). Nature of the test: Kinase activity in cell-free assay (HotSpot), PI3Kδ. Format: biochemical. Particulars: read-out: IC50 against PI3K δ isoform. How it is done:
(§4) To confirm this hypothesis, the inhibitory potency of C98 on PI3K enzymes was measured in a cell-free system with individual recombinant human PI3K isoforms. […] To further evaluate its specificity on PI3K, the effects of C98 on other associated kinases AKT, PDK1, and mTOR were also measured in the enzymatic systems. […] Therefore, C98 preferred to inhibit PI3K activity.
(§5) Figure 1 C98 inhibits PI3K activity (A) Chemical structure of C98. (B) OPM2 cells were starved overnight and then treated with six compounds identified from the virtual screening for 2 hr, followed by IGF-1 stimulation for 15 min. Cell lysates were prepared for AKT expression and phosphorylation analyses. The known PI3K inhibitor S14161 was used as a positive control. (C) OPM2 cells were starved overnight, then treated with C98 at indicated concentration (25, 50 and 100 μM) or S14161 (100 μM) for 2 hr, followed by IGF-1 (100 ng/mL) stimulation for 15 min Cell lysates were prepared for AKT expression and phosphorylation analyses. […] Activity of each kinase was determined with HotSpot technology as described in the Methods section “Kinase activity in cell-free assay”. […]

Another test has as its system JJN3 xenograft. Nature of the test: JJN3 myeloma xenograft in nude mice. It is filed as in vivo.
Another test concerns STAT3. Nature of the test: Immunoblotting of STAT3 phosphorylation in OPM2 and JJN3 cells. Format: cell-based, human. Particulars: OPM2 and JJN3, 24 hr. How it is done:
as §1, §2, §3

The next test has as its system OPM2 xenograft. The experiment in a line: OPM2 myeloma xenograft in nude mice. Format: in vivo. The note with it: 80 mg/kg oral daily.
Test [3] deals with recombinant human PI3K isoform α (Homo sapiens, UniProt P42336). The experiment in a line: Kinase activity in cell-free assay (HotSpot), PI3Kα. Format: biochemical. The note with it: read-out: IC50 against PI3K α isoform. On the procedure: as §4, §5
Chain of recombinant human PI3K isoform α (P42336 whole entry, canonical isoform): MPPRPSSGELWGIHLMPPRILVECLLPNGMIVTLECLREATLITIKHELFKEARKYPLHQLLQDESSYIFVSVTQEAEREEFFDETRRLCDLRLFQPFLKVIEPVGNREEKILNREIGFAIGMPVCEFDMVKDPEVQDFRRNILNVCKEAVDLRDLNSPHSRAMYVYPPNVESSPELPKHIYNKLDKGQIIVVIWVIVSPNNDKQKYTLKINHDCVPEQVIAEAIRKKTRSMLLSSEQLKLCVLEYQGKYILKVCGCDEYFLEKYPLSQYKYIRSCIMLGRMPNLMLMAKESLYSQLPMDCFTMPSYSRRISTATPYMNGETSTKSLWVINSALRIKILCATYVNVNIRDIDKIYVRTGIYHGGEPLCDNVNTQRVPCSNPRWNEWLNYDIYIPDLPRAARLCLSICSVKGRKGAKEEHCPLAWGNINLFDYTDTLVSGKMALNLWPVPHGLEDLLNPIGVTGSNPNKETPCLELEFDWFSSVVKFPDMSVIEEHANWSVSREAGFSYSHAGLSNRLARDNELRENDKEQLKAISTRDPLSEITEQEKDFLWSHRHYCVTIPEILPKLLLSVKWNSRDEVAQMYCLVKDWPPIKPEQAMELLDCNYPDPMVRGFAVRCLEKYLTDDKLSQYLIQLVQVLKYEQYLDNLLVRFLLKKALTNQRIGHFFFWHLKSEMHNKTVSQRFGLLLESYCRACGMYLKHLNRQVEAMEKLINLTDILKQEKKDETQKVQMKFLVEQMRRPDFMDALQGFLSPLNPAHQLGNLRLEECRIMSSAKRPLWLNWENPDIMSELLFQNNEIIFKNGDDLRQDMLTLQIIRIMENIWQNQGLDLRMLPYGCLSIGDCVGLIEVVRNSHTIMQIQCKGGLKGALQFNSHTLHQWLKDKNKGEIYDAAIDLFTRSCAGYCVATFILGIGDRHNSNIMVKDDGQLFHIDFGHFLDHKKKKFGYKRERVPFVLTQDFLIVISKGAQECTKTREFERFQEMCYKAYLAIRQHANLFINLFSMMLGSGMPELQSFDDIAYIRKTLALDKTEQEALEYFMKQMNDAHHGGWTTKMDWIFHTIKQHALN
Chain of recombinant human PI3K isoform α (P27986 whole entry partner, canonical isoform): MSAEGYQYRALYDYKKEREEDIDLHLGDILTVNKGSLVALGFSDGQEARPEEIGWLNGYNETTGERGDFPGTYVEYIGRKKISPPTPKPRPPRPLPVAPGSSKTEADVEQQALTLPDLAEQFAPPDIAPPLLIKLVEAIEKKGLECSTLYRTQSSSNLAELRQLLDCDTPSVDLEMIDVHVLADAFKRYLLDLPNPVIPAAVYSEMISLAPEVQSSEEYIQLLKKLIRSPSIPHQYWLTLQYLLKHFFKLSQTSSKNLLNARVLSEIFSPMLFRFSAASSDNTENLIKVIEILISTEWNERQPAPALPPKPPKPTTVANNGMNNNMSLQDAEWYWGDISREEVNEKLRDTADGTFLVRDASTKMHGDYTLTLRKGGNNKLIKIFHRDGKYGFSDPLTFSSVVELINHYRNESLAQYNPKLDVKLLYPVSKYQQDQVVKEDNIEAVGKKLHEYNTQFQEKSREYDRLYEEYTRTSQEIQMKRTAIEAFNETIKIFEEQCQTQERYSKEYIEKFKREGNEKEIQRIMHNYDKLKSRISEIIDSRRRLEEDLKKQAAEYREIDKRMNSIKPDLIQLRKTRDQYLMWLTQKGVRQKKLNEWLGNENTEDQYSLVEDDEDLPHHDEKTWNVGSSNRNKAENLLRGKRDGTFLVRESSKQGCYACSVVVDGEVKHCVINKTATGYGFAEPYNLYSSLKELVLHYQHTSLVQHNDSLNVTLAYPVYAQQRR
[4] abbreviates: JJN3 xenograft, 40 mg/kg oral daily, 16 days.
The mark [5] stands for this setting: JJN3 xenograft, 80 mg/kg oral daily, 16 days.

Chain of recombinant human PI3K isoform δ (O00329 whole entry, canonical isoform): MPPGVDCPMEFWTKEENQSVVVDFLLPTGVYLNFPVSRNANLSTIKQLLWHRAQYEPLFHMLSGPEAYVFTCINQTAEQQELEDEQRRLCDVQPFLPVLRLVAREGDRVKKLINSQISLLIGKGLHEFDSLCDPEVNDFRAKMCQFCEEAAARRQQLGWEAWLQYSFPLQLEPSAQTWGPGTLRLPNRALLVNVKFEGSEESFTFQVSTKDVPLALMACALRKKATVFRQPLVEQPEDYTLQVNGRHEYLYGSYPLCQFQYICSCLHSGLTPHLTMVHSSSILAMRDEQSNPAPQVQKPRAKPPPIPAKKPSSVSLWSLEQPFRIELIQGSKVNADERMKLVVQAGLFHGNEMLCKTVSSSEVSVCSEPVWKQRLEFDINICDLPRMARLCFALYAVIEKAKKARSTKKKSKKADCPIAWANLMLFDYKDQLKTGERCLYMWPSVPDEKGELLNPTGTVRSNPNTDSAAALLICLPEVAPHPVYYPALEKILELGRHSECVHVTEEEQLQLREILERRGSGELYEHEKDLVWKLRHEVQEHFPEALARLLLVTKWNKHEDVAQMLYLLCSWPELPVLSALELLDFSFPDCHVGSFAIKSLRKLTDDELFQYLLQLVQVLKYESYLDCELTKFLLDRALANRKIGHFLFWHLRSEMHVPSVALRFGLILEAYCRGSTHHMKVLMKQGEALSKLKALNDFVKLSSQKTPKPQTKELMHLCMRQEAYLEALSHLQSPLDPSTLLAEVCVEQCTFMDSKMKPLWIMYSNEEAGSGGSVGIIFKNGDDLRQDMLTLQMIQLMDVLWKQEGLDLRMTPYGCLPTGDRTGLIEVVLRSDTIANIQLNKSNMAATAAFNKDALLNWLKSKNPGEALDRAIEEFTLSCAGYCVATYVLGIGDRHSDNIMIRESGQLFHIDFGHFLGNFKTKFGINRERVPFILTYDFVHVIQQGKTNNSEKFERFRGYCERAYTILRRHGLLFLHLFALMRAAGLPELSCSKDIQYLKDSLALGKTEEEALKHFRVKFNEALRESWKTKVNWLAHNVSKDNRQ
Chain of recombinant human PI3K isoform δ (P27986 whole entry partner, canonical isoform): as the sequence (P27986 whole entry partner, canonical isoform) above

Take `N#C/C(=C\C=C\c1ccc(-c2cc(Cl)ccc2Cl)o1)C(N)=S` [C98]: the “phosphorylation level of ERK” value in the test on ERK is “failed to decrease”. Besides, the “phosphorylation levels of AKT, mTOR, p70S6K, and 4E-BP1” value in test [1] is “downregulated”. Further, in the test on PTEN, the PTEN protein level entry is given as “had no effects on the PTEN protein level”. Moreover, the IC50 in test [2] came to 3650 nM. The “AKT phosphorylation in tumors” value with JJN3 xenograft (JJN3 tumors, both 40 and 80 mg/kg doses, immunoblotting) is listed as “decreased”. Further, in the test with JJN3 xenograft (setting [4]), the “decrease of tumor growth” value worked out at 48% and the tumor volume is given as 1293.1 ± 289.7 mm^3. In the test with JJN3 xenograft (setting [5]), the “decreased tumor growth to %” value worked out at 76.5% and the tumor volume was found to be 581.2 ± 73.2 mm^3. Further, the “cleavage of PARP in tumors” value in the test with JJN3 xenograft (MM tumors excised from C98-treated mice, especially high dose group) is “cleavage of PARP was found”. Further, the “phosphorylated STAT3” value in the test with STAT3 is “did not decrease”. Besides, the “tumors decreased to % of the vehicle control” value with OPM2 xenograft (16-day treatment) was 45%. In addition, the “tumor volume at the end of the experiment” value with OPM2 xenograft (16 days) is 605.8 ± 115.7 mm^3. Moreover, the IC50 in test [3] came out at 590 nM.
